These results are taken from patent US11214561B2, “Histone methyltransferase EZH2 inhibitor, preparation method and pharmaceutical use thereof” (ANCUREALL PHARMACEUTICAL (SHANGHAI) CO., LTD., priority 2017, dated 2022).

A value given as a limit tells only on which side of the number the result lay.

The nature of series [1]: In vivo pharmacokinetics in rats. The settings on record: SD rats. On the procedure:
Test Example 4 Study of In Vivo Pharmacokinetics of the Present Compounds in Rats
Male SD rats (Shanghai Sippr-BK Experimental Animal Co., Ltd) were purchased and kept in Shanghai University of Traditional Chinese Medicine animal center (approved by the ethics committee of Shanghai University of Traditional Chinese Medicine) for 7 days. The rats were randomly divided into 4 groups (˜220 g), 3 rats for each group. Animals were administered intravenously (iv) and orally (po). The rats in po group were starved for 12 hours before administration. After administration, blood was collected from the orbital venous plexus at 0 min (before administration), 2 min, 5 min, 15 min, 30 min, 1 h, 2 h, 4 h, 6 h, 8 h and 24 h. About 200 ul of blood was collected at each time point, and were collected in 1.5 ml centrifuge tube containing heparin sodium. The upper blood […] were collected by centrifugation (8000 rpm, 3 min) and stored at −80° C.
Preparation of test samples: 125.0 mg compound 34 or compound 35 was weighed and added with 4 ml ultrapure water, and 25 ul methanesulfonic acid was added with stirring. The mixture was further stirred until clear and transparent (pH ˜3.32). 1 ml of the above solution was added with 4 ml of ultra-pure water to obtain 5 mg/ml of compound 34 or compound 35 solution (pH=3.5).
Dose and mode of administration: single oral dose (100 mpk) and single intravenous dose (5 mpk).
Administration volume: 4 ml/kg (orally), 1 ml/kg (intravenously).
The plasma concentration of the compound was determined by LC-MS/MS (AB scexqtrap@4500 LCMS/MS system). Pharmacokinetic parameters were calculated by WinNonlin (a professional software). The experiment was repeated once.

Series [2] relates to EZH2 A677G mutant positive-expressing tumor cell line Pfeiffer. The series is described as follows: In vivo growth inhibition, Pfeiffer subcutaneous transplantation model. The settings on record: for Tumor volume: 200 mg/kg orally once a day. The source says:
Test Example 2 Determination of the in vivo growth inhibition activity of the present compounds on EZH2 A677G mutant positive-expressing tumor cell line Pfeiffer NOD/SCID mice were subcutaneously inoculated with human diffuse large cell B lymphoma lymphocyte Pfeiffer (ATCC) expressing EZH2 A677G mutant protein to establish a subcutaneous transplantation model of human B cell lymphoma.
Experimental animals: NOD/SCID mice, female, 9 weeks (weeks of age when tumor cell inoculation), average weight 20.3 g, 18 mice, were purchased from Shanghai Lingchang biotechnology co., Ltd. with animal certificate No.: 2002007656. The breeding environment was SPF grade.
Test samples: the present example compounds 34 (purity: 99.03%) and 35 (purity: 97.6%), solid powder, preserved at −20° C.
Pfeiffer cells were cultured in RPM1640 medium containing 10% of fetal bovine serum. Log-phase Pfeiffer cells were collected and resuspended with PBS to 1×10^8 cells per ml for subcutaneous inoculation in NOD/SCID mice.
All the mice were treated with Co60 irradiation at a dose of 200 rad the day before the inoculation, and 1×10^7 Pfeiffer cells were then subcutaneously inoculated at the right back, and the cells were resuspended in 1:1 PBS and Matrigel (0.1 ml/mouse). When the average tumor volume was 134 mm^3, the mice were randomly grouped according to tumor size. Tumor volume was calculated as: long diameter×short diameter^2/2. The day of tumor cells inoculation was defined as day 0. The test was divided into solvent control group and drug treatment group (compound 34 group and compound 35 group). 6 mice for each group were given orally once a day for a total of 4 weeks. Efficacy was assessed based on relative tumor growth inhibition value (TGI), and safety was assessed based on animal weight change and mortality.
Preparation of test samples: compounds 34 or 35 was weighed and mixed with ultrapure water, and methanesulfonic acid was added for clarification. The PH value was about 1.64 at this moment. 4M NaOH was then added to adjust the PH to 3.5 and bring to volume by ultrapure water, the final concentrations was 20 mg/ml. Determination standard: TGI (%): […].
T/C % refers to the relative value-added rate of tumor, that is, the percentage value of relative tumor volume or tumor weight for the treatment group and the control group at a certain point. T and C were the relative tumor volumes (RTV) of the treatment group and the control group at a specific point, respectively. The calculation formula is as follows: T/C%=TRTV/CRTV*100% TRTV: mean RTV of the treatment group; CRTV: mean RTV of solvent control group; RTV=Vt/V0, V0 was the tumor volume of the animal when grouping, Vt was the tumor volume of the animal after treatment. Statistical analysis: all test results were defined as mean tumor volume±SEM (mean standard error). Tumor volume data of 27 days after the start of treatment were selected for statistical analysis among different groups, and independent sample T test was used to compare whether there were significant differences in tumor volume between the treatment group and the control group. All data were analyzed using SPSS 18.0. P<0.05 was considered as significant difference.

A further series has as its system Pfeiffer (EZH2 A677G). The experiment in a line: In vitro 50% growth inhibition (GI50), MTT/CCK8, Pfeiffer cells. Type of series: cell-based, Human. The settings on record: Homo sapiens, Pfeiffer, 240 h; Drug treatment for 10 days.
For the next series, the system named is SU-DHL-8 (EZH2 WT). The series is described as follows: In vitro 50% growth inhibition (GI50), MTT/CCK8, SU-DHL-8 cells. The settings on record: Homo sapiens, SU-DHL-8, 144 h; Drug treatment for 6 days. Type of series: cell-based.
[3] abbreviates: 200 mg/kg, 27th day after the start of treatment.
Setting [4] is: 200 mg/kg, 27 days after the start of treatment.

With `C=CC(=O)N1CCC(N(CC)c2cc(-c3ccc(CN4CCCCC4)cc3)cc(C(=O)NCc3c(C)cc(C)[nH]c3=O)c2C)CC1` [Example 34, N-(4,6-dimethyl-2-oxo-1,2-dihydro-pyridin-3-ylmethyl)-5-[(1-acryloyl-piperidin-4-yl)-ethyl-amino]-4-methyl-4′-(piperidin-1-ylmethyl)-[1,1′-biphenyl]-3-carboxamide], the “bioavailability, in words” value in series [1] was “good bioavailability”. The same compound registered a bioavailability in series [1] (male, rat, plasma, IV 5 mg/kg, PO 100 mg/kg, methanesulfonic acid aqueous solution) of 48.8%. The “body weight during the treatment” value in series [2] (200 mg/kg dose) is reported as “maintained a stable body weight”. Further, in series [2] (200 mg/kg dose), the tolerability result is “well tolerated”. Also, the Tumor volume in series [2] (Day 0 after the start of treatment) is on record as 135 ± 10 mm^3; in series [2] (Day 3 after the start of treatment), 298 ± 25 mm^3; in series [2] (Day 7 after the start of treatment), 439 ± 48 mm^3; in series [2] (Day 10 after the start of treatment), 441 ± 56 mm^3; in series [2] (Day 14 after the start of treatment), 381 ± 39 mm^3; in series [2] (Day 17 after the start of treatment) it was 472 ± 100 mm^3. The Tumor volume in series [2] (Day 21 after the start of treatment) was 477 ± 158 mm^3; in series [2] (Day 24 after the start of treatment), 570 ± 154 mm^3; in series [2] (Day 27 after the start of treatment, listed as Compound 34), 538 ± 199 mm^3; in series [2] (Day 27 after the start of treatment, listed as compound 34) it was 538 mm^3. Moreover, in series [2] (setting [3]), the “RTV (x ± S), relative tumor volume” value is given as 4.7 ± 2.3. Besides, the “T/C (%), relative tumor volume” value in series [2] (setting [3]) is 32.9%. Further, the “TGI (%), relative tumor volume” value in series [2] (setting [3]) came out at 67.1%. In addition, in series [2] (setting [4]), the “T/C (%), tumor weight” value turned out to be 23.4%. The same compound registered a TGI, tumor weight in series [2] (setting [4]) of 76.6%. The “Tumor weight (mg) (x ± S)” value in series [2] (setting [4]) stood at 264 ± 113 mg. For the same compound, the “anti-tumor effect, in words” value in series [2] (200 mg/kg, versus solvent control group) is “significant anti-tumor effects”. The GI50 was 1 to 10 nM in the series with Pfeiffer (EZH2 A677G) and > 1000 nM in the series with SU-DHL-8 (EZH2 WT).

As usually defined, the bioavailability is dose-corrected exposure relative to a reference, in per cent. A higher bioavailability goes with good availability. By GI50 is commonly meant the concentration at which growth is held to half of that of the control. Higher therefore signals less potent growth inhibition.
